From patent US10987351B2, “RORgamma modulators and uses thereof” (Genfit, priority 2017, dated 2021)

Legend:
[1] = target: T1, human RORγt (Homo sapiens, UniProt P51449); experiment: IL-17 secretion from EL4 murine lymphoma cells overexpressing human RORγt; type: cell-based; conditions: human RORγt-transfected EL4 cells, PMA and ionomycin stimulation; read-out: IC50, inhibition of IL-17 secretion
T1 sequence (P51449 1-497 isoform P51449-2): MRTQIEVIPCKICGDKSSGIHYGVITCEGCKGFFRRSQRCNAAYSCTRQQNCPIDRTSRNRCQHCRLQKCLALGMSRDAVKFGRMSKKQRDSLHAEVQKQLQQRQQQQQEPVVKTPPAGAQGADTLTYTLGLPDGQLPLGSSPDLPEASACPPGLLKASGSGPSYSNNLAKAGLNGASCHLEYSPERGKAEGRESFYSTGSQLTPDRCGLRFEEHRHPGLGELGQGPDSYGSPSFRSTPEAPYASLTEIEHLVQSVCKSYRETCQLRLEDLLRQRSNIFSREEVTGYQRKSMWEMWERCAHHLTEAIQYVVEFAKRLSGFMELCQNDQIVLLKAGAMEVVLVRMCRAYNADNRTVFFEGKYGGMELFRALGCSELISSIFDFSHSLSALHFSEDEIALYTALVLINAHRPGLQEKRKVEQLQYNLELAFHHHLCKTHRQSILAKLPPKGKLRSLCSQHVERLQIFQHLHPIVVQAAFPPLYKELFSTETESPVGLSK
Method: Murine EL-4 lymphoma cell line overexpressing human RORγt was used in this functional assay to assess compound ability to inhibit IL-17 cytokine secretion.
EL-4 cells are maintained in a standard culture medium RPMI supplemented with 10% fetal calf serum, 1% sodium pyruvate, 1% essential amino acids and 1% antibiotics at 37° C. in a humidified atmosphere of 5% CO02 and 95% air. Culture medium was changed every 2 days. EL4 cells were transfected with a plasmid encoding hRORγt (sequence identical to published sequence NM 001001523). […] Briefly, 1 μg of DNA/1 million cells was served to transfect EL-4 cells. Cell/DNA suspension was transferred into certified cuvette and the electroporation of RORγt plasmid was carried out using appropriate Nucleofector® program.
Cells were seeded in 96 well plates at a density of 150000 cells/I well then treated with compounds of this invention at indicated concentrations and incubated for 24 hours at 37° C. in a humidified atmosphere of 5% CO2 and 95% air. EL-4 cells were pretreated with test compounds (RORγ modulators) and stimulated with PMA (10 ng/mL) and ionomycin (1 μM final concentration) in the presence of test compound concentrations for additional 24 h at 37° C. in a humidified atmosphere of 5% CO2 and 95% air. Subsequently, supernatants were collected (after centrifugation at 300 g for 10 minutes) to determine the concentrations of IL-17 by HTRF (CisBio, France) or ELISA (R&D Systems Europe) according to the manufacturer's protocols.

[2] = target: T1, human RORγt; experiment: RORE Luciferase/RORγt transactivation assay; type: cell-based; set-up: the full-length cDNA of human RORγt; V5-His (encoded by the vector); expressed in transfected cells; host or cells: COS-7 (monkey kidney); conditions: COS-7 cells transfected with human IL-17 promoter luciferase reporter and RORγt plasmid, 20 h; read-out: IC50, RORγt activity inhibition (luciferase reporter)
Method: It is well known that RORγ binds to a conserved non-coding sequence (CNS) enhancer element in the IL-17 promoter.
Culture medium was changed every 2 days.
The 4.3 Kb human IL-17 promoter containing the RORγ-specific CNS enhancer element was PCR amplified from human genomic DNA and cloned into a pGL3-TKLuc2Cp reporter plasmid.
The luciferase reporter plasmid and the RORγt overexpression plasmid were transfected into COS-7 cell line using 4 μLJetPEI™/μg of DNA. Briefly, 150 ng of DNA (ration 1/2 between RORE-Tk Luc2Cp and cDNA RORγt or the empty vector for the negative control) was served to transfect adherent COS-7 cells in a […] culture flask, in complete medium (see cos-7 cell line culture).
Cells were then detached (using trypsin) and washed by centrifugation at 300 g for 10 minutes. Cell pellet was resuspended in serum free/phenol red free DMEM and seeded in 384 well plates at a density of 10000 cells/well and then incubated for 4 h at 37° C.
Compounds were dissolved in 100% DMSO to obtain 10 mM stock solutions. For each compound, test concentrations were diluted in serum free/phenol red free DMEM using the Genesis Freedom 200™ (TECAN) and added to the cells to obtain a 0.3% DMSO final concentration (in a final volume of 40 μL per well).
The luciferase activity was then measured with 40 μL/well steady-Glo Luciferase assay system (Promega, Madison, Wis.) and after incubation at room temperature for 30 minutes. The luminescence was estimated using the Ultra384 reader (TECAN). Data were collected and analyzed using GraphPad Prism software (GraphPad Software V5.02, San Diego Calif. USA). IC50 in μM and Emax in % were reported for each compound.

[3] = target: T2, RORγt ligand-binding domain (RORγt-LBD) (Homo sapiens, UniProt P51449); experiment: Time-resolved FRET (TR-FRET) RORγt coactivator assay; type: biochemical; conditions: GST-RORγ-LBD, biotinylated RIP140 peptide, 2 hours; read-out: IC50, coactivator-RORγt binding inhibition (TR-FRET)
T2 construct: 20 nM recombinantly expressed RORγ-LBD fused to GST
T2 sequence (P51449 269-508 limits assumed): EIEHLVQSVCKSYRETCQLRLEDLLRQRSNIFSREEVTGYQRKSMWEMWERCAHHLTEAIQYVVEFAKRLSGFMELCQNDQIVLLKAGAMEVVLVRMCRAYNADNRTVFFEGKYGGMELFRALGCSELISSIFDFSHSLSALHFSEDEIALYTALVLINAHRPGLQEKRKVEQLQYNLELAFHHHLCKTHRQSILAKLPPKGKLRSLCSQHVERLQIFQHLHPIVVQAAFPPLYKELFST
Text: Time-resolved FRET (TR-FRET) RORγt coactivator assay was used to identify RORγ modulator compounds with ligand-dependent coactivator displacement. The assay uses a d2-labeled anti-GST antibody, synthetic N-terminally biotinylated peptide which is derived from nuclear receptor coactivator protein RIP140, and a RORγt ligand-binding domain (RORγt-LBD) that is tagged with glutathione-S-transferase (GST). The influence of compounds on the RORγ-peptide interaction relies on the binding dependent energy transfer from a donor to an acceptor fluorophor attached to the binding partner of interest. […] For reduction of background from compound fluorescence, TR-FRET method makes use of generic fluorophore labels and time resolved detection.
The assays were done in a final volume of 20 μl in a 384 well plate in a CHAPS buffer (2 mM CHAPS; 1 mM DTT, 2 mM EDTA; 0.1% BSA), containing 20 nM recombinantly expressed RORγ-LBD fused to GST, 30 nM N-terminally biotinylated peptide, 1 nM streptavidin-terbium conjugate and 20 nM d2 labeled-anti-GST. Test compounds were diluted using 10 mM stock solution. The range of the final compound concentrations used in this test was from 0.3 nM to 30 μM (logarithmic scale). DMSO content of the samples was kept at 1%. The assay was equilibrated for 2 hours in the dark at room temperature in 384 well plates (Falcon). The signal was detected by an Ultra384 reader (TECAN). […] Compounds that promote coactivator displacement induce a concentration-dependent decrease in time-resolved fluorescent signal. Data were collected and analyzed using GraphPad Prism software (GraphPad Software V5.02, San Diego Calif. USA). IC50 in μM and Emax in % were reported for each compound.

[4] = system: patients with moderate to severe psoriasis; conditions: cited from earlier work

Row | SMILES | IC50 [1] [nM] | IC50 [2] [nM] | IC50 [3] [nM] | reduction in the Psoriasis Area Severity Index (PASI) score relative to placebo ([4]; 350 mg dose group) [%] | placebo-adjusted PASI score reduction ([4]; 700 mg dose group) [%]
1 | CC(=O)N1CCN(c2ccc(CC(=O)NC(c3ccccc3)c3ccccc3N3CCCCC3)cc2)CC1 (centres unmarked) [Cpd.1, 2-[4-(4-acetylpiperazin-1-yl)phenyl]-N-{phenyl[2-(piperidin-1-yl)phenyl]methyl}acetamide] | 100 to 1000 | 100 to 1000 | < 100 | – | –
2 | CC(=O)N1CCN(c2ccc(C)c(CC(=O)NC(c3ccc(C)o3)c3ccc(C)cc3N3CCCCC3)c2)CC1 (centres unmarked) [Cpd.10, 2-[5-(4-acetylpiperazin-1-yl)-2-methylphenyl]-N-{[4-methyl-2-(piperidin-1-yl)phenyl](5-methylfuran-2-yl)methyl}acetamide] | < 100 | < 100 | < 100 | – | –
3 | CC(=O)N1CCN(c2cccc(CC(=O)NC(c3ccc(C)o3)c3ccc(C)cc3N3CCCCC3)c2)CC1 (centres unmarked) [Cpd.20, 2-[3-(4-acetylpiperazin-1-yl)phenyl]-N-{[4-methyl-2-(piperidin-1-yl)phenyl](5-methylfuran-2-yl)methyl}acetamide] | < 100 | < 100 | < 100 | – | –
4 | COc1ccc(C(NC(=O)Cc2cc(N3CCN(C(C)=O)CC3)ccc2C)c2ccc(C)o2)c(N2CCCCCC2)c1 (centres unmarked) [Cpd.11, 2-[5-(4-acetylpiperazin-1-yl)-2-methylphenyl]-N-{[2-(azepan-1-yl)-4-methoxyphenyl](5-methylfuran-2-yl)methyl}acetamide] | 100 to 1000 | 100 to 1000 | < 100 | – | –
5 | CCS(=O)(=O)c1ccc(CNC(=O)c2cnc3c(c2)CN(C[C@H]2CC[C@H](C(F)(F)F)CC2)[C@H]3C(C)C)nc1 [VTP-43742] | – | – | – | 24 | 30
6 | COc1ccc(C(NC(=O)Cc2cc(N3CCN(C(C)=O)CC3)ccc2F)c2ccc(C)o2)c(N2CCCCCC2)c1 (centres unmarked) [Cpd.14, 2-[5-(4-acetylpiperazin-1-yl)-2-fluorophenyl]-N-{[2-(azepan-1-yl)-4-methoxyphenyl](5-methylfuran-2-yl)methyl}acetamide] | 100 to 1000 | 100 to 1000 | < 100 | – | –

Continued, in another order:

Row | IC50 [1] [nM] | IC50 [2] [nM] | IC50 [3] [nM] | SMILES | reduction in the Psoriasis Area Severity Index (PASI) score relative to placebo ([4]; 350 mg dose group) [%] | placebo-adjusted PASI score reduction ([4]; 700 mg dose group) [%]
7 | 100 to 1000 | 100 to 1000 | < 100 | COc1ccc(C(NC(=O)Cc2cc(N3CCN(C(C)=O)CC3)ccc2F)c2ccccc2)c(N2CCCCCC2)c1 (centres unmarked) [Cpd.17, 2-[5-(4-acetylpiperazin-1-yl)-2-fluorophenyl]-N-{[2-(azepan-1-yl)-4-methoxyphenyl](phenyl)methyl}acetamide] | – | –
8 | 1000 to 10000 | 100 to 1000 | < 100 | CC(=O)N1CCN(c2ccc(F)c(CC(=O)NC(c3ccc(C)o3)c3ccc(C)cc3C)c2)CC1 (centres unmarked) [Cpd.12, 2-[5-(4-acetylpiperazin-1-yl)-2-fluorophenyl]-N-[(2,4-dimethylphenyl)(5-methylfuran-2-yl)methyl]acetamide] | – | –
9 | 100 to 1000 | < 100 | < 100 | CC(=O)C1CCN(c2ccc(CC(=O)NC(c3ccc(C)o3)c3ccc(C)cc3N3CCCCC3)cc2)CC1 (centres unmarked) [Cpd.19, 2-[4-(4-acetylpiperidin-1-yl)phenyl]-N-{[4-methyl-2-(piperidin-1-yl)phenyl](5-methylfuran-2-yl)methyl}acetamide] | – | –
10 | 100 to 1000 | < 100 | < 100 | Cc1ccc(C(NC(=O)Cc2ccc(N3CCC(S(C)(=O)=O)CC3)cc2)c2ccc(C)o2)c(N2CCCCC2)c1 (centres unmarked) [Cpd.18, 2-[4-(4-methanesulfonylpiperidin-1-yl)phenyl]-N-{[4-methyl-2-(piperidin-1-yl)phenyl](5-methylfuran-2-yl)methyl}acetamide] | – | –
11 | 100 to 1000 | 100 to 1000 | < 100 | Cc1ccc(C(NC(=O)Cc2cc(N3CCN(S(C)(=O)=O)CC3)ccc2F)c2ccc(C)o2)c(N2CCCCC2)c1 (centres unmarked) [Cpd.16, 2-[2-fluoro-5-(4-methanesulfonylpiperazin-1-yl)phenyl]-N-{[4-methyl-2-(piperidin-1-yl)phenyl](5-methylfuran-2-yl)methyl}acetamide] | – | –
